In test [1] the test system is panel of 36 recombinant kinases. Kind of test: Radioisotope filter assay, panel of recombinant kinases (summary). As to conditions: SRC-family kinases YES1, BLK, LCK, FGR, HCK and FYN; read-out: IC50, range over kinases. In kind it is biochemical. As for the experimental part: The effect of SAB298 on a panel of 36 recombinant kinases, was screed with the radioisotope filter binding assay employing 10 concentrations of the compound with 10 µM ATP (Reaction Biology Corporation, Malvern, PA). In addition, we tested the endogenous kinome response to SAB298 (0.05 µM, 0.5 µM and 5 µM) in lysates from two melanoma cell lines (YUSIV and YUSIK) employing the KiNativ® platform (ActivX Biosciences Inc., La Jolla, CA). KiNativ® is a robust, high performance mass spectrometry (LC-MS^2) assay that uses biotinylated probes to measure relevant changes in the affinity to the ATP-binding sites of 205 native kinases as a function of cellular context. We also validated SAB298 effect on the activity of SRC-family kinases by probing for phosphorylated Y416, the marker of activated SFKs, with anti-IEDNEpYTAR antibodies (also known as Y419, #2101, Cell Signaling Technology, Beverly, MA). In some cases the cells were incubated overnight with 20 µM proteasome inhibitor MG-132 (CAS 133407-82-6, Millipore Sigma, Burlington, MA) to rescue degradation.
Supplemntary Table 3: Radioisotope filter activity assay Tests for SAB298 target protein
*These are results from 10 point dose response test employed with 10 µM ATP.
Supplementary Table 4: Lentiviral vectors MISSION pLKO.1 puromycin bearing SFK shRNA used to test the effect of
specific SFK downregulation on cell proliferation […]

A further test deals with YUHIMO melanoma cells. Briefly: CellTiter-Glo Luminescent Cell Viability Assay. Format: cell-based. As to conditions: Homo sapiens, PDE4DIP-BRAF fusion, 72 hrs. The method, then:
(§1) The melanoma cells were grown in OptiMEM (Invitrogen, Carlsbad, CA) supplemented with 5% fetal calf serum and antibiotics. The normal human melanocytes (NBMEL) were grown in medium supplemented with bFGF, IBMX and dbcAMP [32]. Most of the Yale melanoma cell lines were characterized by next-generation sequencing (Supplementary Table 2).
(§2) Cell proliferation was measured with the CellTiter-Glo® Luminescent Cell Viability Assay (Promega Corporation, Madison, WI). Melanoma cells were seeded in 96-well plates in triplicate or quadruplet wells, with increasing concentrations of kinase inhibitors for 72 hrs. The rate of proliferation was also tested after knockdown of different SRC-family kinases (SFK) with hairpin lentivirus shRNA as indicated. […] The statistical significance of synergism of response to drug combinations was evaluated by following Chou and Talalay algorithm. See also details in Supplementary Material.
(In general: ATP-based viability assays read luminescence as a measure of living cells.)

The test system of the next test is YURIF melanoma cells. Briefly: CellTiter-Glo Luminescent Cell Viability Assay. In kind it is cell-based. To be noted: Homo sapiens, BRAF V600K, 72 hrs. The method, then:
as §1, §2

Another test concerns YUZEST melanoma cells. Briefly: CellTiter-Glo Luminescent Cell Viability Assay. Format: cell-based. To be noted: Homo sapiens, BRAF V600E, 72 hrs. The method, then:
as §1, §2

For another test, the system named is YUNIS melanoma cells. Kind of test: CellTiter-Glo Luminescent Cell Viability Assay. As to conditions: Homo sapiens, HRAS Q61K, 72 hrs. In kind it is cell-based. The method, then: as §1, §2
Another test deals with YUDOSO melanoma cells. Kind of test: CellTiter-Glo Luminescent Cell Viability Assay. In kind it is cell-based. To be noted: Homo sapiens, NRAS Q61K, 72 hrs. The method, then: as §1, §2
The next test relates to YUPEPO melanoma cells. Kind of test: CellTiter-Glo Luminescent Cell Viability Assay. In kind it is cell-based. To be noted: Homo sapiens, WT/WT, GNA11 Q209L, 72 hrs. The method, then:
as §1, §2

For another test, the system named is YUGANK melanoma cells. Briefly: CellTiter-Glo Luminescent Cell Viability Assay. In kind it is cell-based. As to conditions: Homo sapiens, NRAS Q61K, 72 hrs. As for the experimental part: as §1, §2
A further test has as its system YUFURL melanoma cells. Kind of test: CellTiter-Glo Luminescent Cell Viability Assay. In kind it is cell-based. As to conditions: Homo sapiens, NRAS G12D, 72 hrs. As for the experimental part: as §1, §2
The test system of a further test is YUTICA melanoma cells. Briefly: CellTiter-Glo Luminescent Cell Viability Assay. Format: cell-based. To be noted: Homo sapiens, NRAS Q61R, 72 hrs. As for the experimental part:
as §1, §2

A further test relates to SK-MEL-28 melanoma cells. Briefly: CellTiter-Glo Luminescent Cell Viability Assay. As to conditions: Homo sapiens, SK-MEL-28, BRAF V600E, 72 hrs. In kind it is cell-based. The method, then:
as §1, §2

For another test, the system named is YUCRATE melanoma cells. Briefly: CellTiter-Glo Luminescent Cell Viability Assay. Format: cell-based. To be noted: Homo sapiens, BRAF G469A, 72 hrs. As for the experimental part: as §1, §2
The next test deals with YUKSI melanoma cells. Kind of test: CellTiter-Glo Luminescent Cell Viability Assay. In kind it is cell-based. As to conditions: Homo sapiens, BRAF V600K, 72 hrs. The method, then:
as §1, §2

Another test concerns YUCHIME melanoma cells. Kind of test: CellTiter-Glo Luminescent Cell Viability Assay. Format: cell-based. As to conditions: Homo sapiens, BRAF V600K/M, 72 hrs. As for the experimental part: as §1, §2

Regarding `Nc1ncnc2c1c(-c1ccc(Oc3ccccc3)cc1)nn2C[C@@H]1SSC[C@@H]1O` [SAB298, (3S, 4S)-3-((4-amino-3-(4-phenoxyphenyl)-1H-pyrazolo[3,4-d]pyrimidin-1-yl)methyl)-1,2-dithiolan-4-ol], the half-maximal inhibitory concentration (IC50) in test [1] was 0.7 to 21.7 nM; in the test with YUHIMO melanoma cells it was 237 nM; with YURIF melanoma cells, 500 nM; in the test with YUZEST melanoma cells, 263 nM; in the test with YUNIS melanoma cells, 2580 nM; in the test on YUDOSO melanoma cells it was 2360 nM. In addition, the 50% inhibitory concentration (IC50) with YUPEPO melanoma cells was 264 nM; with YUGANK melanoma cells, 456 nM; in the test with YUFURL melanoma cells, 371 nM; in the test with YUTICA melanoma cells, 766 nM; in the test with SK-MEL-28 melanoma cells it was 812 nM; in the test on YUCRATE melanoma cells it was 282 nM. The IC50 was 582 nM in the test on YUKSI melanoma cells and 2480 nM in the test on YUCHIME melanoma cells.

A word on the IC50: it is the point on the concentration scale where inhibition reaches its midpoint.

The values are drawn from PMC6481345, “A novel anti-melanoma SRC-family kinase inhibitor” (Oncotarget, 2019).
